Key:
[1] = system: TLR1/2/6; test: Specificity test in HEK-Blue TLR-overexpressing cells, TLR1/2/6; assay type: cell-based, human; settings: 5 μM S-1, HEK-Blue TLR cells, TLR-specific agonists
[2] = molecular target: T1, TLR3 (Homo sapiens, UniProt O15455); test: Specificity test in HEK-Blue TLR-overexpressing cells, TLR3; assay type: cell-based; settings: 5 μM S-1, HEK-Blue TLR cells, TLR-specific agonist
T1 sequence (O15455 24-904): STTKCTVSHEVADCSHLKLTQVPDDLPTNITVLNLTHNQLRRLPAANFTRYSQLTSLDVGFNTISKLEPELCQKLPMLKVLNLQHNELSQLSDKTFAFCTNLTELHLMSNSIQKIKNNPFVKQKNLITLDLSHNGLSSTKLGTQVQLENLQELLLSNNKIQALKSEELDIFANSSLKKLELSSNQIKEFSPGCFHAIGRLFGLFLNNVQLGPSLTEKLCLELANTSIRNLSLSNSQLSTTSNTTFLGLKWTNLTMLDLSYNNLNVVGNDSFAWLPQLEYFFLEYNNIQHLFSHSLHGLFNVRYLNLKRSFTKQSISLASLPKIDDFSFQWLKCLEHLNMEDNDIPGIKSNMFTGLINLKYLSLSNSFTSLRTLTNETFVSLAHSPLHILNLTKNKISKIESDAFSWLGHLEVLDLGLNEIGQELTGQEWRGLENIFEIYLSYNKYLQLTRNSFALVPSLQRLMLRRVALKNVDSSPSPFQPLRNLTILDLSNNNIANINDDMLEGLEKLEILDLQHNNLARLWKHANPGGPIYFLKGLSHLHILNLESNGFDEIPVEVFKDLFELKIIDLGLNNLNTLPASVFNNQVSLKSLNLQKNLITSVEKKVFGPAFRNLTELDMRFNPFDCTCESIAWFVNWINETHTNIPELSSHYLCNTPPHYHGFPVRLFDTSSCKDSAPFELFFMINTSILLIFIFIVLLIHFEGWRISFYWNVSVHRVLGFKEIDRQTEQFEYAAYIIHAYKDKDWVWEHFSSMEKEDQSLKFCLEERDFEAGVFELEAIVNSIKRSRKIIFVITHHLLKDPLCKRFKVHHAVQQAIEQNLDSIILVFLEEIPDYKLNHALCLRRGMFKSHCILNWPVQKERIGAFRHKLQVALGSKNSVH

[3] = molecular target: TLR5 (Homo sapiens, UniProt O60602); test: Specificity test in HEK-Blue TLR-overexpressing cells, TLR5; assay type: cell-based; settings: 5 μM S-1, HEK-Blue TLR cells, TLR-specific agonist
Chain of TLR5 (O60602 21-858): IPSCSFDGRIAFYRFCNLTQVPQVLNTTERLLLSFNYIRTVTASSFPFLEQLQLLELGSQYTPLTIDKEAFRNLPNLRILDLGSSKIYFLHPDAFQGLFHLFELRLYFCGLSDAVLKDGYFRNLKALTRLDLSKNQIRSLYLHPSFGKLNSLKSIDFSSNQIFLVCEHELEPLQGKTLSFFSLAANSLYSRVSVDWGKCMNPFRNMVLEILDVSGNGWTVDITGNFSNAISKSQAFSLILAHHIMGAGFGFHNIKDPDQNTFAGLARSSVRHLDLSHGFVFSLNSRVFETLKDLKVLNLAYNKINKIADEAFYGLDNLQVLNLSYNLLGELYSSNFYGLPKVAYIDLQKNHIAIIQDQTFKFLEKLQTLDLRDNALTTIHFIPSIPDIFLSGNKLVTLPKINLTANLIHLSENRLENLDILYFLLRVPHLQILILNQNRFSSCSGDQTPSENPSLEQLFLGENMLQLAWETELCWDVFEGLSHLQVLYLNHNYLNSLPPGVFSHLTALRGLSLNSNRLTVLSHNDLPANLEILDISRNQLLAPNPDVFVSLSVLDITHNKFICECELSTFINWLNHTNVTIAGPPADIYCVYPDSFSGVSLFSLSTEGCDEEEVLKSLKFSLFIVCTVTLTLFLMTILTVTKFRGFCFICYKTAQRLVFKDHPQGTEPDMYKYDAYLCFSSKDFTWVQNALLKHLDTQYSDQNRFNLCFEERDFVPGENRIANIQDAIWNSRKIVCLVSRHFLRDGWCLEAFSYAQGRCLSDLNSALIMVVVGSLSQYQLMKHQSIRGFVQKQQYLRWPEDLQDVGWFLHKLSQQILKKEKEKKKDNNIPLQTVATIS

[4] = molecular target: T2, TLR9 (Homo sapiens, UniProt Q9NR96); test: Specificity test in HEK-Blue TLR-overexpressing cells, TLR9; assay type: cell-based; settings: 5 μM S-1, HEK-Blue TLR cells, TLR-specific agonist
T2 sequence (Q9NR96 26-1032): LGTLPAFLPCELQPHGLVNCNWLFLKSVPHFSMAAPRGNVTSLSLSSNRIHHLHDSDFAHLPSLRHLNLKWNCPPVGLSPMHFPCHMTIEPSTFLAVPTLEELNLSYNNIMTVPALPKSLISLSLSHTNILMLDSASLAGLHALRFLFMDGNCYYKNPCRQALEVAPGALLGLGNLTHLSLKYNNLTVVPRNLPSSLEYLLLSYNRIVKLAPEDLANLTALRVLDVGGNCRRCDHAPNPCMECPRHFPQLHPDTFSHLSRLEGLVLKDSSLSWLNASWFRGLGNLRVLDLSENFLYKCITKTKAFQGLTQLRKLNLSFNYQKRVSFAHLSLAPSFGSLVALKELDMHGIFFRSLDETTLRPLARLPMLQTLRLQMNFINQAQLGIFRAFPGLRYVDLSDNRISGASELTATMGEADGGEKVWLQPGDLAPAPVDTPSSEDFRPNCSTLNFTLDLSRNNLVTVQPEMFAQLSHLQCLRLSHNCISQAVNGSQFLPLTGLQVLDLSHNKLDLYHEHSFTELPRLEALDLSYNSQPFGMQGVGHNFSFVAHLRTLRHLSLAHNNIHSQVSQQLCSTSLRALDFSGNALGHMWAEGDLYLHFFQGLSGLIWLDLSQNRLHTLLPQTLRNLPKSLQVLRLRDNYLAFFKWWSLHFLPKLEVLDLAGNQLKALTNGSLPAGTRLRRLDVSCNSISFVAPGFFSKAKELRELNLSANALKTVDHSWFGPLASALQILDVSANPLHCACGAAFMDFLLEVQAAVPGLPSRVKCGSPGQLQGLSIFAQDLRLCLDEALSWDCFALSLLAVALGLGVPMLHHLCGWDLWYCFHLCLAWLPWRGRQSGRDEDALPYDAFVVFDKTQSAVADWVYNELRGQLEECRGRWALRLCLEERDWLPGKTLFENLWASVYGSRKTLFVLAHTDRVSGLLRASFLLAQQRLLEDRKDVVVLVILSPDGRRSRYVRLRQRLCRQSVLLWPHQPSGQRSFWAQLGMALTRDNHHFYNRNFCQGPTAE

O=C(c1ccc(Cl)cc1)N1CCN(c2ccc([N+](=O)[O-])c3ncccc23)CC1 [Compound S1]
no obvious inhibition: inhibition of TLR1/2/6 [1] | inhibition of TLR3 [2] | inhibition of TLR5 [3] | inhibition of TLR9 [4]

Reference: PMC11628833 (Acta Pharmaceutica Sinica. B, 2024)
